# Data: ChEMBL document CHEMBL3046635, “Synthesis and Herbicidal Activity of New Pyrazole-4-carboxamide Derivatives” (J Pestic Sci, 2004)
# Active and inactive are the calls of the source.
# Tests used:
# Elatine triandra [1] = experiment: Pre-emergence herbicidal activity against Elatine triandra at 500 g a.i/ha measured after 14 days; format: functional, organism-based
# [2] = tested on: Schoenoplectiella juncoides; experiment: Pre-emergence herbicidal activity against Schoenoplectiella juncoides at 500 g a.i/ha measured after 14 days; format: functional, organism-based
# [3] = tested on: Schoenoplectiella juncoides; experiment: Post-emergence herbicidal activity against Schoenoplectiella juncoides assessed as bleaching of stem/leaf parts; format: functional, organism-based; further: test concentration or dose not given here
# Eleocharis acicularis [4] = experiment: Pre-emergence herbicidal activity against Eleocharis acicularis assessed as bleaching of stem/leaf parts; format: functional, organism-based
# Pontederia vaginalis [5] = experiment: Post-emergence herbicidal activity against Monochoria vaginalis assessed as bleaching of stem/leaf parts; format: functional, organism-based; further: test concentration or dose not given here
# Echinochloa oryzicola [6] = experiment: Pre-emergence herbicidal activity against Echinochloa oryzicola at 500 g a.i/ha measured after 14 days; format: functional, organism-based
# Rotala indica [7] = experiment: Post-emergence herbicidal activity against Rotala indica assessed as bleaching of stem/leaf parts; format: functional, organism-based; further: test concentration or dose not given here
# Ammannia multiflora [8] = experiment: Pre-emergence herbicidal activity against Ammannia multiflora assessed as bleaching of stem/leaf parts; format: functional, organism-based
# Eleocharis acicularis [9] = experiment: Pre-emergence herbicidal activity against Eleocharis acicularis at 500 g a.i/ha measured after 14 days; format: functional, organism-based
# Echinochloa oryzicola [10] = experiment: Pre-emergence herbicidal activity against Echinochloa oryzicola assessed as bleaching of stem/leaf parts; format: functional, organism-based
# Pontederia vaginalis [11] = experiment: Pre-emergence herbicidal activity against Monochoria vaginalis assessed as bleaching of stem/leaf parts; format: functional, organism-based
# Ammannia multiflora [12] = experiment: Post-emergence herbicidal activity against Ammannia multiflora assessed as bleaching of stem/leaf parts; format: functional, organism-based; further: test concentration or dose not given here
# Cyperus difformis [13] = experiment: Post-emergence herbicidal activity against Cyperus difformis assessed as bleaching of stem/leaf parts; format: functional, organism-based; further: test concentration or dose not given here
# Oryza sativa = experiment: Phytotoxicity against Oryza sativa cv. Koshihikari (rice) at 500 g a.i/ha measured after 14 days; format: organism-based; conditions: in vivo, 336 h
# Lindernia procumbens [14] = experiment: Pre-emergence herbicidal activity against Lindernia procumbens at 500 g a.i/ha measured after 14 days; format: functional, organism-based
# Cyperus difformis [15] = experiment: Pre-emergence herbicidal activity against Cyperus difformis assessed as bleaching of stem/leaf parts; format: functional, organism-based
# Cyperus difformis [16] = experiment: Pre-emergence herbicidal activity against Cyperus difformis at 500 g a.i/ha measured after 14 days; format: functional, organism-based
# Lindernia procumbens [17] = experiment: Post-emergence herbicidal activity against Lindernia procumbens assessed as bleaching of stem/leaf parts; format: functional, organism-based; further: test concentration or dose not given here
# Echinochloa oryzicola [18] = experiment: Post-emergence herbicidal activity against Echinochloa oryzicola assessed as bleaching of stem/leaf parts; format: functional, organism-based; further: test concentration or dose not given here
# Rotala indica [19] = experiment: Pre-emergence herbicidal activity against Rotala indica at 500 g a.i/ha measured after 14 days; format: functional, organism-based
# Elatine triandra [20] = experiment: Post-emergence herbicidal activity against Elatine triandra assessed as bleaching of stem/leaf parts; format: functional, organism-based; further: test concentration or dose not given here
# Rotala indica [21] = experiment: Pre-emergence herbicidal activity against Rotala indica assessed as bleaching of stem/leaf parts; format: functional, organism-based
# Pontederia vaginalis [22] = experiment: Pre-emergence herbicidal activity against Monochoria vaginalis at 500 g a.i/ha measured after 14 days; format: functional, organism-based
# Lindernia procumbens [23] = experiment: Pre-emergence herbicidal activity against Lindernia procumbens assessed as bleaching of stem/leaf parts; format: functional, organism-based
# Ammannia multiflora [24] = experiment: Pre-emergence herbicidal activity against Ammannia multiflora at 500 g a.i/ha measured after 14 days; format: functional, organism-based
# Eleocharis acicularis [25] = experiment: Post-emergence herbicidal activity against Eleocharis acicularis assessed as bleaching of stem/leaf parts; format: functional, organism-based; further: test concentration or dose not given here
# [26] = tested on: Schoenoplectiella juncoides; experiment: Pre-emergence herbicidal activity against Schoenoplectiella juncoides assessed as bleaching of stem/leaf parts; format: functional, organism-based
# Elatine triandra [27] = experiment: Pre-emergence herbicidal activity against Elatine triandra assessed as bleaching of stem/leaf parts; format: functional, organism-based
Structure (SMILES),Activity (Elatine triandra [1]),Activity [2],Activity [3],Activity (Eleocharis acicularis [4]),Activity (Pontederia vaginalis [5]),Activity (Echinochloa oryzicola [6]),Activity (Rotala indica [7]),Activity (Ammannia multiflora [8]),Activity (Eleocharis acicularis [9]),Activity (Echinochloa oryzicola [10]),Activity (Pontederia vaginalis [11]),Activity (Ammannia multiflora [12]),Activity (Cyperus difformis [13]),Activity (Oryza sativa),Activity (Lindernia procumbens [14]),Activity (Cyperus difformis [15]),Activity (Cyperus difformis [16]),Activity (Lindernia procumbens [17]),Activity (Echinochloa oryzicola [18]),Activity (Rotala indica [19]),further results
CNC(=O)c1cn(C)nc1OCc1cccc(C(F)(F)F)c1,inactive,inactive,Active,Active,Active,inactive,Active,Active,inactive,Active,Active,Active,Active,Non-toxic,inactive,Active,inactive,Active,Active,inactive,Activity (Elatine triandra [20]): Active; Activity (Rotala indica [21]): Active; Activity (Pontederia vaginalis [22]): inactive; Activity (Lindernia procumbens [23]): Active; Activity (Ammannia multiflora [24]): inactive; Activity (Eleocharis acicularis [25]): Active; Activity [26]: Active; Activity (Elatine triandra [27]): Active
Cn1cc(C(=O)NCc2cccc(Cl)c2)c(OCc2cccc(C(F)(F)F)c2)n1,inactive,inactive,Active,Active,Active,inactive,Active,Active,inactive,Active,Active,Active,Active,Non-toxic,inactive,Active,inactive,Active,Active,inactive,Activity (Elatine triandra [20]): Active; Activity (Rotala indica [21]): Active; Activity (Pontederia vaginalis [22]): inactive; Activity (Lindernia procumbens [23]): Active; Activity (Ammannia multiflora [24]): inactive; Activity (Eleocharis acicularis [25]): Active; Activity [26]: Active; Activity (Elatine triandra [27]): Active
CCCn1cc(C(=O)NOCC)c(OCc2cccc(C(F)(F)F)c2)n1,inactive,inactive,Active,Active,Active,inactive,Active,Active,inactive,Active,Active,Active,Active,Non-toxic,inactive,Active,inactive,Active,Active,inactive,Activity (Elatine triandra [20]): Active; Activity (Rotala indica [21]): Active; Activity (Pontederia vaginalis [22]): inactive; Activity (Lindernia procumbens [23]): Active; Activity (Ammannia multiflora [24]): inactive; Activity (Eleocharis acicularis [25]): Active; Activity [26]: Active; Activity (Elatine triandra [27]): Active
C#CCNC(=O)c1cn(C)nc1OCc1cccc(C(F)(F)F)c1,inactive,inactive,Active,Active,Active,inactive,Active,Active,inactive,Active,Active,Active,Active,Non-toxic,inactive,Active,inactive,Active,Active,inactive,Activity (Elatine triandra [20]): Active; Activity (Rotala indica [21]): Active; Activity (Pontederia vaginalis [22]): inactive; Activity (Lindernia procumbens [23]): Active; Activity (Ammannia multiflora [24]): inactive; Activity (Eleocharis acicularis [25]): Active; Activity [26]: Active; Activity (Elatine triandra [27]): Active
Cn1cc(C(=O)Nc2ccc(C(F)(F)F)cc2)c(OCc2cccc(C(F)(F)F)c2)n1,Active,inactive,Active,Active,Active,inactive,Active,Active,Active,Active,Active,Active,Active,Non-toxic,Active,Active,inactive,Active,Active,Active,Activity (Elatine triandra [20]): Active; Activity (Rotala indica [21]): Active; Activity (Pontederia vaginalis [22]): Active; Activity (Lindernia procumbens [23]): Active; Activity (Ammannia multiflora [24]): Active; Activity (Eleocharis acicularis [25]): Active; Activity [26]: Active; Activity (Elatine triandra [27]): Active
Cn1cc(C(=O)NOc2ccc(C(C)(C)C)cc2)c(OCc2cccc(C(F)(F)F)c2)n1,inactive,inactive,Active,Active,Active,inactive,Active,Active,inactive,Active,Active,Active,Active,Non-toxic,inactive,Active,inactive,Active,Active,inactive,Activity (Elatine triandra [20]): Active; Activity (Rotala indica [21]): Active; Activity (Pontederia vaginalis [22]): inactive; Activity (Lindernia procumbens [23]): Active; Activity (Ammannia multiflora [24]): inactive; Activity (Eleocharis acicularis [25]): Active; Activity [26]: Active; Activity (Elatine triandra [27]): Active
Cn1nc(OCc2cccc(C(F)(F)F)c2)c(C(=O)NOc2ccc(F)cc2F)c1Cl,inactive,inactive,Active,Active,Active,inactive,Active,Active,inactive,Active,Active,Active,Active,Non-toxic,inactive,Active,inactive,Active,Active,inactive,Activity (Elatine triandra [20]): Active; Activity (Rotala indica [21]): Active; Activity (Pontederia vaginalis [22]): inactive; Activity (Lindernia procumbens [23]): Active; Activity (Ammannia multiflora [24]): inactive; Activity (Eleocharis acicularis [25]): Active; Activity [26]: Active; Activity (Elatine triandra [27]): Active
Cc1c(C(=O)NOc2ccc(F)cc2F)c(OCc2cccc(C(F)(F)F)c2)nn1C,inactive,Active,Active,Active,Active,inactive,Active,Active,inactive,Active,Active,Active,Active,Non-toxic,inactive,Active,inactive,Active,Active,inactive,Activity (Elatine triandra [20]): Active; Activity (Rotala indica [21]): Active; Activity (Pontederia vaginalis [22]): inactive; Activity (Lindernia procumbens [23]): Active; Activity (Ammannia multiflora [24]): inactive; Activity (Eleocharis acicularis [25]): Active; Activity [26]: Active; Activity (Elatine triandra [27]): Active
C=CCNC(=O)c1cn(C)nc1OCc1cccc(C(F)(F)F)c1,inactive,inactive,Active,Active,Active,inactive,Active,Active,inactive,Active,Active,Active,Active,Non-toxic,inactive,Active,inactive,Active,Active,inactive,Activity (Elatine triandra [20]): Active; Activity (Rotala indica [21]): Active; Activity (Pontederia vaginalis [22]): inactive; Activity (Lindernia procumbens [23]): Active; Activity (Ammannia multiflora [24]): inactive; Activity (Eleocharis acicularis [25]): Active; Activity [26]: Active; Activity (Elatine triandra [27]): Active
